Test results taken from paper PMC5218480 (PLoS ONE, 2017).

Tested on: MV-4-11 cells
Assay: Gene expression microarray analysis (Affymetrix PrimeView) and GSEA
Type: cell-based, human
Parameters: RFU PODN (11730768_x_at) / Fold change /veh PODN (11730768_x_at) / RFU LINC00158 (11744669_a_at) / Fold change /veh LINC00158 (11744669_a_at) / RFU DUSP10 (11751237_a_at) / Fold change /veh DUSP10 (11751237_a_at) / RFU ID3 (11757404_x_at) / Fold change /veh ID3 (11757404_x_at) / RFU PLEKHG5 (11737974_s_at) / Fold change /veh PLEKHG5 (11737974_s_at) / RFU LRRC4B (11730491_at) / Fold change /veh LRRC4B (11730491_at) / RFU GIMAP4 (11747438_a_at) / Fold change /veh GIMAP4 (11747438_a_at) / RFU KRT8 (11758183_x_at) / Fold change /veh KRT8 (11758183_x_at) / RFU CNN1 (11734310_a_at) / Fold change /veh CNN1 (11734310_a_at) / RFU VPS37D (11726825_at) / Fold change /veh VPS37D (11726825_at) / RFU C10orf10 (11716522_x_at) / Fold change /veh C10orf10 (11716522_x_at) / RFU KIR2DL2 /// KIR2DL4 /// KIR2DL5A /// KIR2DL5B /// KIR2DS1 /// KIR2DS2 /// KIR2DS3 /// KIR2DS4 /// KIR3DL3 /// KIR3DL3 /// KIR3DS1 (11738374_at) / Fold change /veh KIR2DL2 /// KIR2DL4 /// KIR2DL5A /// KIR2DL5B /// KIR2DS1 /// KIR2DS2 /// KIR2DS3 /// KIR2DS4 /// KIR3DL3 /// KIR3DL3 /// KIR3DS1 (11738374_at) / RFU C1QL1 (11718748_at) / Fold change /veh C1QL1 (11718748_at) / RFU TMPRSS4 (11747572_a_at) / Fold change /veh TMPRSS4 (11747572_a_at) / RFU HAMP (11756126_x_at) / Fold change /veh HAMP (11756126_x_at) / RFU RNFT2 (11725882_a_at) / Fold change /veh RNFT2 (11725882_a_at) / RFU NR4A2 (11747474_a_at) / Fold change /veh NR4A2 (11747474_a_at) / RFU ABCC12 (11746883_a_at) / Fold change /veh ABCC12 (11746883_a_at) / RFU TMEM136 (11760407_x_at) / Fold change /veh TMEM136 (11760407_x_at) / RFU CLDN22 /// WWC2 (11732394_at) / Fold change /veh CLDN22 /// WWC2 (11732394_at) / RFU HLA-DPB1 (11760878_x_at) / Fold change /veh HLA-DPB1 (11760878_x_at) / RFU SPINT1 (11716480_a_at) / Fold change /veh SPINT1 (11716480_a_at) / RFU GAP43 (11754022_s_at) / Fold change /veh GAP43 (11754022_s_at) / RFU A4GNT (11735810_at) / Fold change /veh A4GNT (11735810_at) / RFU PRB3 (11715151_x_at) / Fold change /veh PRB3 (11715151_x_at) / RFU TUBB4B (11761932_at) / Fold change /veh TUBB4B (11761932_at) / RFU CAPN14 (11732068_a_at) / Fold change /veh CAPN14 (11732068_a_at) / RFU TMCC2 (11721928_a_at) / Fold change /veh TMCC2 (11721928_a_at) / RFU IRGQ (11745062_a_at) / Fold change /veh IRGQ (11745062_a_at) / RFU FAM174B (11720279_a_at) / Fold change /veh FAM174B (11720279_a_at) / RFU TMPRSS4 (11748680_a_at) / Fold change /veh TMPRSS4 (11748680_a_at) / RFU FAM212B (11763350_a_at) / Fold change /veh FAM212B (11763350_a_at) / RFU PLEKHG5 (11743358_a_at) / Fold change /veh PLEKHG5 (11743358_a_at) / RFU ZSCAN30 (11745921_a_at) / Fold change /veh ZSCAN30 (11745921_a_at) / RFU CMKLR1 (11741424_a_at) / Fold change /veh CMKLR1 (11741424_a_at) / RFU LOC101060620 /// MAPK8IP1 (11723275_at) / Fold change /veh LOC101060620 /// MAPK8IP1 (11723275_at) / RFU SPTSSB (11747773_x_at) / Fold change /veh SPTSSB (11747773_x_at) / RFU PRSS12 (11739890_at) / Fold change /veh PRSS12 (11739890_at) / RFU BIN1 (11741810_x_at) / Fold change /veh BIN1 (11741810_x_at) / RFU WNT11 (11732464_a_at) / Fold change /veh WNT11 (11732464_a_at) / RFU C10orf10 (11716521_a_at) / Fold change /veh C10orf10 (11716521_a_at) / RFU C5orf56 (11738089_at) / Fold change /veh C5orf56 (11738089_at) / RFU CYB561 (11721691_x_at) / Fold change /veh CYB561 (11721691_x_at) / RFU ANKRD19P (11752326_a_at) / Fold change /veh ANKRD19P (11752326_a_at) / RFU OR2T12 /// OR2T33 /// OR2T8 (11738714_s_at) / Fold change /veh OR2T12 /// OR2T33 /// OR2T8 (11738714_s_at) / RFU VCAN (11748164_a_at) / Fold change /veh VCAN (11748164_a_at) / RFU JSRP1 (11732532_at) / Fold change /veh JSRP1 (11732532_at) / RFU KRTAP10-11 (11738290_x_at) / Fold change /veh KRTAP10-11 (11738290_x_at) / RFU MYO3A (11730013_a_at) / Fold change /veh MYO3A (11730013_a_at) / RFU EBF3 (11725865_a_at) / Fold change /veh EBF3 (11725865_a_at) / RFU CAMK2N1 (11719241_x_at) / Fold change /veh CAMK2N1 (11719241_x_at) / RFU C5orf56 (11738088_a_at) / Fold change /veh C5orf56 (11738088_a_at) / RFU OLFML3 (11715873_a_at) / Fold change /veh OLFML3 (11715873_a_at) / RFU LOC100653217 /// NTM (11731650_a_at) / Fold change /veh LOC100653217 /// NTM (11731650_a_at) / RFU MAPK11 (11762145_a_at) / Fold change /veh MAPK11 (11762145_a_at) / RFU FIZ1 (11724087_x_at) / Fold change /veh FIZ1 (11724087_x_at) / RFU OASL (11726364_x_at) / Fold change /veh OASL (11726364_x_at) / RFU SOX15 (11748057_x_at) / Fold change /veh SOX15 (11748057_x_at) / RFU CD79A (11719716_a_at) / Fold change /veh CD79A (11719716_a_at) / RFU HIST1H1D (11736915_at) / Fold change /veh HIST1H1D (11736915_at) / RFU CASKIN2 (11723855_a_at) / Fold change /veh CASKIN2 (11723855_a_at) / RFU LOC730098 (11760151_x_at) / Fold change /veh LOC730098 (11760151_x_at) / RFU OR4N2 (11742367_at) / Fold change /veh OR4N2 (11742367_at) / RFU PRRT2 (11749266_a_at) / Fold change /veh PRRT2 (11749266_a_at) / RFU SNX32 (11753110_a_at) / Fold change /veh SNX32 (11753110_a_at) / RFU CDHR5 (11726645_a_at) / Fold change /veh CDHR5 (11726645_a_at) / RFU RCAN1 (11760418_a_at) / Fold change /veh RCAN1 (11760418_a_at) / RFU FAM167A (11723789_a_at) / Fold change /veh FAM167A (11723789_a_at) / RFU FAM26E (11764081_at) / Fold change /veh FAM26E (11764081_at) / RFU ISYNA1 (11749810_s_at) / Fold change /veh ISYNA1 (11749810_s_at) / RFU ACY1 (11761880_at) / Fold change /veh ACY1 (11761880_at) / RFU 11764098_at / Fold change /veh 11764098_at / RFU SAMD14 (11745864_x_at) / Fold change /veh SAMD14 (11745864_x_at) / RFU NPB (11741838_a_at) / Fold change /veh NPB (11741838_a_at) / RFU TMPRSS6 (11731388_a_at) / Fold change /veh TMPRSS6 (11731388_a_at) / RFU KRTAP10-2 (11738614_at) / Fold change /veh KRTAP10-2 (11738614_at) / RFU ARHGAP8 /// PRR5-ARHGAP8 (11727945_x_at) / Fold change /veh ARHGAP8 /// PRR5-ARHGAP8 (11727945_x_at) / RFU KRTAP5-7 /// NADSYN1 (11734609_at) / Fold change /veh KRTAP5-7 /// NADSYN1 (11734609_at) / RFU RASL12 (11751679_a_at) / Fold change /veh RASL12 (11751679_a_at) / RFU CDKN2B (11736163_a_at) / Fold change /veh CDKN2B (11736163_a_at) / RFU PRF1 (11729649_at) / Fold change /veh PRF1 (11729649_at) / RFU, ZNF638 /// ZNF638-IT1 / Fold change vs veh, ZNF638 /// ZNF638-IT1 / RFU, PANK3 / Fold change vs veh, PANK3 / RFU, SH3YL1 / Fold change vs veh, SH3YL1 / RFU, ZEB2 / Fold change vs veh, ZEB2 / RFU, NRIP1 / Fold change vs veh, NRIP1 / RFU, PTTG1IP / Fold change vs veh, PTTG1IP / RFU, CAPN2 / Fold change vs veh, CAPN2 / RFU, MED14 / Fold change vs veh, MED14 / RFU, SNORA58 / Fold change vs veh, SNORA58 / RFU, C1orf63 / Fold change vs veh, C1orf63 / RFU, LRRFIP1 / Fold change vs veh, LRRFIP1 / RFU, NDUFAF7 / Fold change vs veh, NDUFAF7 / RFU, SLC12A2 / Fold change vs veh, SLC12A2 / RFU, IBTK / Fold change vs veh, IBTK / RFU, ESF1 / Fold change vs veh, ESF1 / Fold change vs veh, TMEM50B / RFU, TAOK1 / Fold change vs veh, TAOK1 / RFU, ACBD3 / Fold change vs veh, ACBD3 / RFU, TMA16 / Fold change vs veh, TMA16 / RFU, RWDD3 / Fold change vs veh, RWDD3 / RFU, BCAT1 / Fold change vs veh, BCAT1 / RFU, EDEM3 / Fold change vs veh, EDEM3 / RFU, TMEM33 / Fold change vs veh, TMEM33 / RFU, WDR75 / Fold change vs veh, WDR75 / RFU, AHCTF1 / Fold change vs veh, AHCTF1 / RFU, TFRC / Fold change vs veh, TFRC / RFU, ZDHHC17 / Fold change vs veh, ZDHHC17 / RFU, NOM1 / Fold change vs veh, NOM1 / RFU, ARL8B / Fold change vs veh, ARL8B / RFU, ZBTB11 / Fold change vs veh, ZBTB11 / RFU, TAMM41 / Fold change vs veh, TAMM41 / RFU, KIAA1704 /// LOC100996395 / Fold change vs veh, KIAA1704 /// LOC100996395 / RFU, ING1 / Fold change vs veh, ING1 / RFU, TRMT61B / Fold change vs veh, TRMT61B / RFU, FUBP3 / Fold change vs veh, FUBP3 / RFU, TP53 / Fold change vs veh, TP53 / RFU, TNKS2 / Fold change vs veh, TNKS2 / RFU, ZFP14 / Fold change vs veh, ZFP14 / RFU, ACTR2 / Fold change vs veh, ACTR2 / RFU, PPP3R1 / Fold change vs veh, PPP3R1 / RFU, PIK3R1 / Fold change vs veh, PIK3R1 / RFU, HNRNPA1 / Fold change vs veh, HNRNPA1 / RFU, RNF170 / Fold change vs veh, RNF170 / RFU, ZNF28 / Fold change vs veh, ZNF28 / RFU, RNGTT / Fold change vs veh, RNGTT / RFU, OGT / Fold change vs veh, OGT / RFU, BRD1 / Fold change vs veh, BRD1 / RFU, MARS / Fold change vs veh, MARS / RFU, ZNF655 / Fold change vs veh, ZNF655 / RFU, FAHD1 / Fold change vs veh, FAHD1 / RFU, BDP1 / Fold change vs veh, BDP1 / RFU, LRRCC1 / Fold change vs veh, LRRCC1 / RFU, ARID1A / Fold change vs veh, ARID1A / RFU, ZNF146 / Fold change vs veh, ZNF146 / RFU, ZNF330 / Fold change vs veh, ZNF330 / RFU, GPN3 / Fold change vs veh, GPN3 / RFU, C9orf123 / Fold change vs veh, C9orf123 / RFU, N4BP2L2 / Fold change vs veh, N4BP2L2 / RFU, ARFIP1 / Fold change vs veh, ARFIP1 / RFU, FAM179B / Fold change vs veh, FAM179B / RFU, BCL10 / Fold change vs veh, BCL10 / RFU, UHRF1BP1L / Fold change vs veh, UHRF1BP1L / RFU, BET1 / Fold change vs veh, BET1 / RFU, CNOT2 / Fold change vs veh, CNOT2 / RFU, ZNF268 / Fold change vs veh, ZNF268 / Fold change vs veh, ZNF507 / RFU, DGCR2 / Fold change vs veh, DGCR2 / RFU, WDSUB1 / Fold change vs veh, WDSUB1 / Fold change vs veh, HSP90B1 /// MIR3652 / RFU, ADSS / Fold change vs veh, ADSS / RFU, GK / Fold change vs veh, GK / RFU, ZNF148 / Fold change vs veh, ZNF148 / RFU, TAF9 / Fold change vs veh, TAF9 / RFU, SLC1A5 / Fold change vs veh, SLC1A5 / RFU, SLMO2 / Fold change vs veh, SLMO2 / RFU, ABCC4 / Fold change vs veh, ABCC4 / RFU, LOC101060439 /// RAP1B / Fold change vs veh, LOC101060439 /// RAP1B / RFU, RFX7 / Fold change vs veh, RFX7 / RFU, GTPBP10 / Fold change vs veh, GTPBP10 / RFU, CNEP1R1 / Fold change vs veh, CNEP1R1 / RFU, BIVM-ERCC5 /// ERCC5 / Fold change vs veh, BIVM-ERCC5 /// ERCC5 / RFU, ILF3 / Fold change vs veh, ILF3 / RFU 11762660_at / Fold change /veh 11762660_at / RFU VCAN (11757783_s_at) / Fold change /veh VCAN (11757783_s_at) / RFU DDX43 (11728927_at) / Fold change /veh DDX43 (11728927_at) / RFU KRT8 (11758188_x_at) / Fold change /veh KRT8 (11758188_x_at) / RFU NKD1 (11759106_at) / Fold change /veh NKD1 (11759106_at) / RFU SRD5A1 (11742802_a_at) / Fold change /veh SRD5A1 (11742802_a_at) / RFU TPSAB1 /// TPSB2 (11721975_s_at) / Fold change /veh TPSAB1 /// TPSB2 (11721975_s_at) / RFU GSTM3 (11746129_a_at) / Fold change /veh GSTM3 (11746129_a_at) / RFU IL23R (11737362_x_at) / Fold change /veh IL23R (11737362_x_at) / RFU TMEM51 (11727254_a_at) / Fold change /veh TMEM51 (11727254_a_at) / RFU PIWIL2 (11732686_x_at) / Fold change /veh PIWIL2 (11732686_x_at) / RFU ORM1 (11744905_x_at) / Fold change /veh ORM1 (11744905_x_at) / RFU CCDC152 (11743942_at) / Fold change /veh CCDC152 (11743942_at) / RFU ECM1 (11717891_a_at) / Fold change /veh ECM1 (11717891_a_at) / RFU IL23R (11748794_a_at) / Fold change /veh IL23R (11748794_a_at) / RFU TNFAIP8L3 (11732012_x_at) / Fold change /veh TNFAIP8L3 (11732012_x_at) / RFU MBOAT4 (11741988_at) / Fold change /veh MBOAT4 (11741988_at) / RFU 11764193_at / Fold change /veh 11764193_at / RFU TMEM53 (11763286_at) / Fold change /veh TMEM53 (11763286_at) / RFU MAGEB2 (11727129_at) / Fold change /veh MAGEB2 (11727129_at) / RFU TMEM200A (11744735_a_at) / Fold change /veh TMEM200A (11744735_a_at) / RFU CCDC152 (11751479_a_at) / Fold change /veh CCDC152 (11751479_a_at) / RFU FAM211A (11726209_a_at) / Fold change /veh FAM211A (11726209_a_at) / RFU RGS16 (11746705_a_at) / Fold change /veh RGS16 (11746705_a_at) / RFU VCAN (11755009_s_at) / Fold change /veh VCAN (11755009_s_at) / RFU RHOB (11743442_s_at) / Fold change /veh RHOB (11743442_s_at) / RFU RGS16 (11720943_a_at) / Fold change /veh RGS16 (11720943_a_at) / RFU RGS16 (11720944_at) / Fold change /veh RGS16 (11720944_at) / RFU, VPS4B / Fold change vs veh, VPS4B / RFU, CREB1 / Fold change vs veh, CREB1 / RFU, DNAJC13 / Fold change vs veh, DNAJC13 / RFU, GNAQ / Fold change vs veh, GNAQ / RFU, CDK5R1 / Fold change vs veh, CDK5R1 / RFU, ZRANB3 / Fold change vs veh, ZRANB3 / RFU, CUL4A / Fold change vs veh, CUL4A / RFU, CCNY / Fold change vs veh, CCNY / RFU, UFL1 / Fold change vs veh, UFL1 / RFU, COG3 / Fold change vs veh, COG3 / RFU, DIAPH2 / Fold change vs veh, DIAPH2 / RFU, SKA2 / Fold change vs veh, SKA2 / RFU, AFF3 / Fold change vs veh, AFF3 / RFU, LMF1 / Fold change vs veh, LMF1 / RFU, IPO11 / Fold change vs veh, IPO11 / RFU, DFFB / Fold change vs veh, DFFB / RFU, FOXP1 / Fold change vs veh, FOXP1 / RFU, CARD8 / Fold change vs veh, CARD8 / RFU, STRN3 / Fold change vs veh, STRN3 / RFU, ADK / Fold change vs veh, ADK / RFU, RASSF2 / Fold change vs veh, RASSF2 / RFU, WIPF1 / Fold change vs veh, WIPF1 / RFU, LARP1B / Fold change vs veh, LARP1B / RFU, RASA1 / Fold change vs veh, RASA1 / RFU, RB1 / Fold change vs veh, RB1 / RFU, PPFIA1 / Fold change vs veh, PPFIA1 / RFU, MAT2A / Fold change vs veh, MAT2A / RFU, CCT5 / Fold change vs veh, CCT5 / RFU, WDR92 / Fold change vs veh, WDR92 / RFU, CUX1 / Fold change vs veh, CUX1 / RFU, TTC7A / Fold change vs veh, TTC7A / RFU, TMEM135 / Fold change vs veh, TMEM135 / RFU, DEPTOR / Fold change vs veh, DEPTOR / RFU, CPM / Fold change vs veh, CPM / RFU, DNAJB6 / Fold change vs veh, DNAJB6 / RFU, CACNA2D3 / Fold change vs veh, CACNA2D3 / RFU, DTX4 / Fold change vs veh, DTX4 / RFU, TFCP2 / Fold change vs veh, TFCP2 / RFU, GMCL1 /// GMCL1P1 / Fold change vs veh, GMCL1 /// GMCL1P1 / RFU, AEBP2 / Fold change vs veh, AEBP2 / RFU, SNHG1 /// SNORD22 /// SNORD25 /// SNORD26 /// SNORD27 /// SNORD28 /// SNORD29 /// SNORD31 / Fold change vs veh, SNHG1 /// SNORD22 /// SNORD25 /// SNORD26 /// SNORD27 /// SNORD28 /// SNORD29 /// SNORD31 / Fold change (Aza/veh), C12orf56 (ProbeSet 11735607_a_at) / Fold change (ACY-1035/veh), C12orf56 (ProbeSet 11735607_a_at) / Fold change (Aza/veh), FGFR1OP (ProbeSet 11751329_s_at) / Fold change (ACY-1035/veh), FGFR1OP (ProbeSet 11751329_s_at) / Fold change (Aza/veh), VPS36 (ProbeSet 11739960_a_at) / Fold change (ACY-1035/veh), VPS36 (ProbeSet 11739960_a_at) / RFU SYPL1 (11715823_x_at) / Fold change /veh SYPL1 (11715823_x_at) / RFU IGFBP7 (11715501_s_at) / Fold change /veh IGFBP7 (11715501_s_at) / RFU REEP3 (11722064_at) / Fold change /veh REEP3 (11722064_at) / RFU IGLL1 (11728026_x_at) / Fold change /veh IGLL1 (11728026_x_at): dose or concentration left out as unconfirmed
Conditions: MV-4-11 cells, 48 hours

In the case of `Nc1ncn([C@@H]2O[C@H](CO)[C@@H](O)[C@H]2O)c(=O)n1` [azacitidine], the “RFU CYB561 (11721691_x_at)” value is reported as 13.47 RFU.
